In US20110028507A1, “PYRIDINE DERIVATIVES AND METHODS OF USE THEREOF” (CRYSTALGENOMICS, INC., priority 2007, published 2011):
Read-outs that look alike come from different tables or passages of the source.

How the values were obtained:
[1] = tested on: EPO gene; assay: Cell-based luciferase reporter assay, pEPO HRE-Luc in HeLa cells; conditions: Homo sapiens, compound 100 μM, 24 hrs, read-out: EPO fold induction over control
Excerpt: (§1) A luciferase assay was used to determine the changes in transcription amount of EPO and VEGF genes in cells. For the luciferase assay, a human HIF I a gene was first cloned into an animal cell expression vector, pFlag-CMV, to prepare a pFlag-HIF1α vector, and a hypoxia responsible element (HRE) sequence of an EPO gene 3′-enhancer domain was then cloned upstream of luciferase and TK promoter genes to prepare a pEPO HRE-Luc expression vector. Also, the promoter and luciferase domains of the VEGF gene were cloned into a pGL3-basic vector to prepare a pVEGF-Luc expression vector. HeLa cells were seed-cultured in a medium dish to grow to about 70-80% density one day before the HeLa cells were to be used. The HeLa cells were transfected with each of the prepared pEPO HRE-Luc and pVEGF-Luc expression vectors together with the pFlag-HIF1α and the Renilla luciferase expression vector (Promega, Madison, Wis., USA), by using LipofectAMINE PLUS™ (Invitrogen Life Technologies, Carlsbad Calif.). Three hours after the transfection, the medium was exchanged with DMEM, 1% Penicillin-Streptomycin in 10% FBS supplemented with serum. At this time, cultured cells were treated with each of the compounds at the concentrations indicated. Then, the cells were cultured for 24 hrs in an incubator that was maintained under conditions of 37° C., 20% O2 and 5% CO2. After culturing, cells were washed twice with cold phosphate buffer saline (PBS). Luciferase activity of the cells was measured using the dual luciferase assay system (Promega, Madison, Wis., USA).

[2] = tested on: VEGF gene; assay: Cell-based luciferase reporter assay, pVEGF-Luc in HeLa cells; conditions: Homo sapiens, compound 100 μM, 24 hrs
Excerpt: as §1

[3] = target: T1, HIF-PH2 (EGLN1) (Homo sapiens, UniProt Q9GZT9); assay: HIF-PH2 (PHD2) assay (fluorescence polarization method); assay type: biochemical; conditions: 200 nM HIF PH2 enzyme, 50 nM peptide substrate, 30° C. one hour; read-out: IC50 (HIF PH2 inhibition activity)
T1 construct: made in house; host or cells: E. coli
T1 sequence (Q9GZT9 whole entry, species assumed): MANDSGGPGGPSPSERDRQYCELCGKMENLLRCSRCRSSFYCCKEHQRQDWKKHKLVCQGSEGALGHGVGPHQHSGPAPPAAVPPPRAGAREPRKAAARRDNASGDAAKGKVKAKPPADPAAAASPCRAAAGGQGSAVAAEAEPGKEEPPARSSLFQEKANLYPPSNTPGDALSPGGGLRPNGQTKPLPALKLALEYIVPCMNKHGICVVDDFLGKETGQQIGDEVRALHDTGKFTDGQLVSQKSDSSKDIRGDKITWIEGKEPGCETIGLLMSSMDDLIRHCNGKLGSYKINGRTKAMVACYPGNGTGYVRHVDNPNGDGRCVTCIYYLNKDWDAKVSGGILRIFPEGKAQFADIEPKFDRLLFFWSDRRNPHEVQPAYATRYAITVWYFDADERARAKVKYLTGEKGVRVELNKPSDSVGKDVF
Description: HIF-PH2 (EGLN1) was expressed from E. coli cells, and purified using two process: an Ni-affinity chromatography column and a size-exclusion chromatography column.
To evaluate activities of an HIF PH2 inhibitor, HIF PH2 enzyme that was first overexpressed by genetic recombination and then purified was used to perform an enzyme reaction. […] At this time, 2 mM ascorbic acid and 5 mM ketoglutarate with 100 μM FeCl2 or without FeCl2, were used together with crude enzyme. A concentration of HIF PH2 inhibitor to be tested was treated and reacted at 30° C. for one hour. After the reaction, the resulting reaction product was boiled at 95° C. for one minute to suppress the enzyme reaction.
To determine whether prolyl hydroxylation occurs in the substrate as the secondary reaction, 500 nM GST-VBC (GST-VHL-Elongin B-Elongin C) protein was added to a reaction buffer (50 mM Tris-Cl (pH8.0), 120 mM NaCl, 0.5% Nonidet P40), and a GST-VBC binding reaction was carried out at room temperature for 30 minutes.
A fluorescence polarization value of a sample that is not treated with the HIF PH2 inhibitor was used as 100% control, and the activities of the HIF PH2 inhibitor were measured as percentage of the remaining HIF PH2 enzyme activity in samples treated with a concentration of the HIF PH2 inhibitor to be tested.

[4] = tested on: EPO; assay: Human EPO immunoassay (ELISA of Hep3B culture media); assay type: cell-based; conditions: Hep3B cells, compound at 100 μM, 24-hour incubation; for EPO (mIU/ml): culture media ELISA; for fold induction at 100 µM: Homo sapiens, read-out: Fold Induction over control (EPO Induction)
Description: Human cells derived from hepatocarcinoma (Hep3B) tissue (see, e.g., American Type Culture Collection, Manassas Va.) were grown at 37° C., 20% O2, 5% CO2 in DMEM (GIBCO)+10% FBS, 4.5 g/L D-Glucose; L-Glutamate and 110 mg/L sodium pyruvate. Ninety-six well plates were seeded with 4×10^4 HEP3B cells/well. The media was removed and replaced with DMEM+10% FBS. Compounds were added to wells at concentrations between 1 μM-100 μM for a 24-hour incubation. Cell culture media was harvested and EPO concentration was determined using a Human Erythropoietin Quantikine IVD ELISA Kit (R&D Systems®, Minneapolis, Minn.) following the manufacturer's instructions for the benchtop assay.

[5] = read-out: VEGF 1 fold induction over control
[6] = read-out: VEGF 2 fold induction over control

Structure (SMILES): COc1ccc(Cn2nnc(CNC(=O)c3nc(Br)c4c(sc5ccccc54)c3O)n2)cc1 [1-Bromo-4-hydroxy-benzo[4,5]thieno[3,2-c]pyridine-3-carboxylic acid [2-(4-methoxy-benzyl)-2H-tetrazol-5-ylmethyl]-amide]
- fold induction at 100 µM [1]: < 2
- fold induction at 100 µM [2, 5]: 2.1 to 4
- IC50 [3]: < 25 µM

Structure (SMILES): O=C(O)CNC(=O)c1ncc2c(cnn2-c2ccccc2)c1O [[(4-Hydroxy-1-phenyl-1H-pyrazolo[3,4-c]pyridine-5-carbonyl)-amino]-acetic acid]
- fold induction at 100 µM [1]: > 4.1
- fold induction at 100 µM [2, 5]: 2.1 to 4
- IC50 [3]: < 25 µM

Structure (SMILES): O=C(O)CNC(=O)c1nc(Cl)c2c(sc3ccc([N+](=O)[O-])cc32)c1O [[(1-Chloro-4-hydroxy-8-nitro-benzo[4,5]thieno[3,2-c]pyridine-3-carbonyl)-amino]-acetic acid]
- fold induction at 100 µM [1]: 2.1 to 4
- fold induction at 100 µM [2, 5]: > 4.1
- IC50 [3]: < 25 µM

Structure (SMILES): O=C(O)CNC(=O)c1nc(Cl)c2c(sc3cccc(F)c32)c1O [[(1-Chloro-9-fluoro-4-hydroxy-benzo[4,5]thieno[3,2-c]pyridine-3-carbonyl)-amino]-acetic acid]
- fold induction at 100 µM [2, 6]: 2.1 to 4
- EPO (mIU/ml) [4]: K (K = 41-60 mIU/ml)
- fold induction at 100 µM [4]: > 71
- IC50 [3]: < 25 µM

Structure (SMILES): O=C(O)CNC(=O)c1nc(Cl)c2c(sc3ccccc32)c1O [[(1-Chloro-4-hydroxy-benzo[4,5]thieno[3,2-c]pyridine-3-carbonyl)-amino]-acetic acid]
- fold induction at 100 µM [1]: > 4.1
- fold induction at 100 µM [2, 5]: > 4.1
- fold induction at 100 µM [2, 6]: > 4.1
- EPO (mIU/ml) [4]: J (J = 21-40 mIU/ml)
- fold induction at 100 µM [4]: 21 to 50

Structure (SMILES): O=C(O)CNC(=O)c1nc(Cl)c2c(sc3ccc(F)cc32)c1O [[(1-Chloro-8-fluoro-4-hydroxy-benzo[4,5]thieno[3,2-c]pyridine-3-carbonyl)-amino]-acetic acid]
- fold induction at 100 µM [1]: > 4.1
- fold induction at 100 µM [2, 5]: 2.1 to 4
- EPO (mIU/ml) [4]: J (J = 21-40 mIU/ml)
- fold induction at 100 µM [4]: 21 to 50
- IC50 [3]: < 25 µM

Structure (SMILES): O=C(O)CNC(=O)c1nc(Cl)c2c(sc3c(F)cccc32)c1O [[(1-Chloro-6-fluoro-4-hydroxy-benzo[4,5]thieno[3,2-c]pyridine-3-carbonyl)-amino]-acetic acid]
- fold induction at 100 µM [1]: 2.1 to 4
- fold induction at 100 µM [2, 5]: 2.1 to 4
- EPO (mIU/ml) [4]: I (I = 0-20 mIU/ml)
- fold induction at 100 µM [4]: < 20
- IC50 [3]: < 25 µM

Structure (SMILES): O=C(O)CNC(=O)c1nc(Cl)c2c(cnn2-c2ccccc2)c1O [[(7-Chloro-4-hydroxy-1-phenyl-1H-pyrazolo[3,4-c]pyridine-5-carbonyl)-amino]-acetic acid]
- fold induction at 100 µM [1]: > 4.1
- fold induction at 100 µM [2, 5]: 2.1 to 4
- IC50 [3]: < 25 µM

Structure (SMILES): O=C(NCc1ccccn1)c1nc(Br)c2c(sc3ccccc32)c1O [1-Bromo-4-hydroxy-benzo[4,5]thieno[3,2-c]pyridine-3-carboxylic acid (pyridin-2-ylmethyl)-amide]
- fold induction at 100 µM [1]: < 2
- fold induction at 100 µM [2, 5]: 2.1 to 4
- IC50 [3]: < 25 µM

Structure (SMILES): O=C(O)CNC(=O)c1nc(Br)c2c(sc3ccccc32)c1O [[(1-Bromo-4-hydroxy-benzo[4,5]thieno[3,2-c]pyridine-3-carbonyl)-amino]-acetic acid]
- fold induction at 100 µM [1]: > 4.1
- fold induction at 100 µM [2, 5]: 4
- IC50 [3]: < 25 µM

Structure (SMILES): CN(C)c1ccc2sc3c(O)c(C(=O)NCC(=O)O)nc(Cl)c3c2c1 [[(1-Chloro-8-dimethylamino-4-hydroxy-benzo[4,5]thieno[3,2-c]pyridine-3-carbonyl)-amino]-acetic acid]
- fold induction at 100 µM [1]: > 4.1
- fold induction at 100 µM [2, 5]: > 4.1
- IC50 [3]: < 25 µM

Structure (SMILES): C[C@H](NC(=O)c1nc(Cl)c2c(sc3ccccc32)c1O)C(=O)O [(S)-2-[(1-Chloro-4-hydroxy-benzo[4,5]thieno[3,2-c]pyridine-3-carbonyl)-amino]-propionic acid]
- fold induction at 100 µM [1]: 2.1 to 4
- fold induction at 100 µM [2, 5]: > 4.1
- IC50 [3]: 26 to 100 µM

Structure (SMILES): N#Cc1nc(C(=O)NCC(=O)O)c(O)c2sc3ccccc3c12 [[(1-Cyano-4-hydroxy-benzo[4,5]thieno[3,2-c]pyridine-3-carbonyl)-amino]-acetic acid]
- fold induction at 100 µM [1]: < 2
- fold induction at 100 µM [2, 5]: 2.1 to 4

Structure (SMILES): O=C(O)CNC(=O)c1nc(Cl)c2c(sc3cc(F)ccc32)c1O [[(1-Chloro-7-fluoro-4-hydroxy-benzo[4,5]thieno[3,2-c]pyridine-3-carbonyl)-amino]-acetic acid]
- fold induction at 100 µM [1]: > 4.1
- fold induction at 100 µM [2, 5]: > 4.1
- EPO (mIU/ml) [4]: K (K = 41-60 mIU/ml)
- fold induction at 100 µM [4]: 51 to 70
- IC50 [3]: < 25 µM

Structure (SMILES): Nc1ccc2sc3c(O)c(C(=O)NCC(=O)O)nc(Cl)c3c2c1 [3-(Carboxymethyl-carbamoyl)-1-chloro-4-hydroxy-benzo[4,5]thieno[3,2-c]pyridin-8-yl-ammonium]
- fold induction at 100 µM [1]: 2.1 to 4
- fold induction at 100 µM [2, 5]: 2.1 to 4
- IC50 [3]: < 25 µM

Structure (SMILES): COc1ccc(Cn2nnnc2CNC(=O)c2nc(Br)c3c(sc4ccccc43)c2O)cc1 [1-Bromo-4-hydroxy-benzo[4,5]thieno[3,2-c]pyridine-3-carboxylic acid [1-(4-methoxy-benzyl)-1H-tetrazol-5-ylmethyl]-amide]
- fold induction at 100 µM [1]: < 2
- fold induction at 100 µM [2, 5]: < 2
- IC50 [3]: 26 to 100 µM

Structure (SMILES): O=C(NCc1ccccc1)c1nc(Br)c2c(sc3ccccc32)c1O [1-Bromo-4-hydroxy-benzo[4,5]thieno[3,2-c]pyridine-3-carboxylic acid benzylamide]
- fold induction at 100 µM [1]: < 2
- fold induction at 100 µM [2, 5]: < 2
- IC50 [3]: 26 to 100 µM

Structure (SMILES): C[C@H](NC(=O)c1nc(Br)c2c(sc3ccccc32)c1O)C(=O)O [(S)-2-[(1-Bromo-4-hydroxy-benzo[4,5]thieno[3,2-c]pyridine-3-carbonyl)-amino]-propionic acid]
- fold induction at 100 µM [1]: 2.1 to 4
- fold induction at 100 µM [2, 5]: > 4.1
- IC50 [3]: 26 to 100 µM

Structure (SMILES): CC(=O)Nc1ccc2sc3c(O)c(C(=O)NCC(=O)O)nc(Cl)c3c2c1 [[(8-Acetylamino-1-chloro-4-hydroxy-benzo[4,5]thieno[3,2-c]pyridine-3-carbonyl)-amino]-acetic acid]
- fold induction at 100 µM [2, 6]: < 2
- IC50 [3]: < 25 µM
